Test results published in US7915291B2, “Hepatitis C virus inhibitors” (Bristol-Myers Squibb Company, priority 2002, dated 2011).
pEC50, pIC50: −log10 of the molar value. Where two headings read alike, the source gives them in different places.

Key:
[1] = target: HCV NS3/4A protease complex, BMS strain (UniProt P27958, C1454S/C1711G, species not given/STRAIN_BMS); experiment: Recombinant HCV NS3/4A protease complex FRET peptide assay (BMS strain); format: biochemical, HCV genotype 1a
Description: Recombinant HCV NS3/4A Protease Complex FRET Peptide Assay
The purpose of this in vitro assay was to measure the inhibition of HCV NS3 protease complexes, derived from the BMS, H77C or J416S strains, as described below, by compounds of the present invention.
Serum from an HCV-infected patient was obtained from Dr. T. Wright, San Francisco Hospital. An engineered full-length cDNA (compliment deoxyribonucleic acid) template of the HCV genome (BMS strain) was constructed from DNA fragments obtained by reverse transcription-PCR(RT-PCR) of serum RNA (ribonucleic acid) and using primers selected on the basis of homology between other genotype 1a strains.
The BMS, H77C and J4L6S strains were used for production of recombinant NS3/4A protease complexes. […] Briefly, a three-lysine solubilizing tail was added at the 3′-end of the NS4A coding region. […] Briefly, NS3/4A expression was induced with 0.5 mM Isopropyl β-D-1-thiogalactopyranoside (IPTG) for 22 hr at 20° C. […] The crude protein extract was loaded on a Nickel—Nitrilotriacetic acid (Ni-NTA) column pre-equilibrated with buffer B (25 mM HEPES, pH8.0, 20% glycerol, 500 mM NaCl, 0.5% Triton-X100, 15 mM imidazole, 5 mM βME). The sample was loaded at a flow rate of 1 mL/min. The column was washed with 15 column volumes of buffer C (same as buffer B except with 0.2% Triton-X100). The protein was eluted with 5 column volumes of buffer D (same as buffer C except with 200 mM Imidazole).
NS3/4A protease complex-containing fractions were pooled and loaded on a desalting column Superdex-S200 pre-equilibrated with buffer D (25 mM HEPES, pH7.5, 20% glycerol, 300 mM NaCl, 0.2% Triton-X100, 10 mM βME). Sample was loaded at a flow rate of 1 mL/min. NS3/4A protease complex-containing fractions were pooled and concentrated to approximately 0.5 mg/ml.
The enzyme was stored at −80° C., thawed on ice and diluted prior to use in assay buffer. […] The sequence of this peptide is loosely based on the NS4A/NS4B natural cleavage site except there is an ester linkage rather than an amide bond at the cleavage site. The peptide substrate was incubated with one of the three recombinant NS3/4A complexes, in the absence or presence of a compound of the present invention, and the formation of fluorescent reaction product was followed in real time using a Cytofluor Series 4000.
The reagents were as follow: HEPES and Glycerol (Ultrapure) were obtained from GIBCO-BRL. Dimethyl Sulfoxide (DMSO) was obtained from Sigma. β-Mercaptoethanol was obtained from Bio Rad.
Substrate: 2 μM final concentration (from a 2 mM stock solution in DMSO stored at −20° C.). HCV NS3/4A type 1a (1b), 2-3 nM final concentration (from a 5 μM stock solution in 25 mM HEPES, pH7.5, 20% glycerol, 300 mM NaCl, 0.2% Triton-X100, 10 mM βME).
The assay was performed in a 96-well polystyrene black plate from Falcon. Each well contained 25 μl NS3/4A protease complex in assay buffer, 50 μof a compound of the present invention in 10% DMSO/assay buffer and 25 μl substrate in assay buffer. A control (no compound) was also prepared on the same assay plate. The enzyme complex was mixed with compound or control solution for 1 min before initiating the enzymatic reaction by the addition of substrate. The assay plate was read immediately using the Cytofluor Series 4000 (Perspective Biosystems). The instrument was set to read an […] at 25° C. Reactions were generally followed for approximately 15 minutes.
The percent inhibition was calculated with the following equation: 100−[(δFinh/δFcon)×100] where δF is the change in fluorescence over the linear range of the curve.

[2] = tested on: HCV replicon in Huh7 cells; experiment: HCV replicon cell-based assay; set-up: species or system HCV strain 1B; details: Hepatitis C virus, Huh-7; HCV replicon, Huh7 cells; read-out: EC50 range
Description: HCV Replicon Cell-based Assay
This system enabled us to evaluate the effects of our HCV Protease compounds on HCV RNA replication. Briefly, using the HCV strain 1B sequence described in the Lohmann paper (Assession number:AJ238799), an HCV cDNA was generated encoding the 5′ internal ribosome entry site (IRES), the neomycin resistance gene, the EMCV (encephalomyocarditis virus)-IRES and the HCV nonstructural proteins, NS3-NS5B, and 3′ non-translated region (NTR). In vitro transcripts of the cDNA were transfected into the human hepatoma cell line, Huh7. […] Resulting cell lines were characterized for positive and negative strand RNA production and protein production over time.
Huh7 cells, constitutively expressing the HCV replicon, were grown in Dulbecco's Modified Eagle Media (DMEM) containing 10% Fetal calf serum (FCS) and 1 mg/ml G418 (Gibco-BRL). Cells were seeded the night before (1.5×10^4 cells/well) in 96-well tissue-culture sterile plates. Compound and no compound controls were prepared in DMEM containing 4% FCS, 1:100 Penicillin/Streptomysin, 1:100 L-glutamine and 5% DMSO in the dilution plate (0.5% DMSO final concentration in the assay). Compound/DMSO mixes were added to the cells and incubated for 4 days at 37° C. After 4 days, plates were rinsed thoroughly with Phosphate-Buffered Saline (PBS) (3 times 150 μl). The cells were lysed with 25 μl of a lysis assay reagent containing the FRET peptide (RET S1, as described for the in vitro enzyme assay). The lysis assay reagent was made from 5× cell Luciferase cell culture lysis reagent(Promega #E153A) diluted to 1× with distilled water, NaCl added to 150 mM final, the FRET peptide diluted to 10 μM final from a 2 mM stock in 100% DMSO. The plate was then placed into the Cytofluor 4000 instrument which had been set to 340 nm excitation/490 emission, automatic mode for 21 cycles and the plate read in a kinetic mode. EC50 determinations were carried out as described for the IC50 determinations.
Cells were lyzed using the Rneasy kit (Qiagen). […] All primers were designed with ABI Prism 7700 software and obtained from Biosearch Technologies, Novato, Calif. Samples containing known concentrations of HCV RNA transcript were run as standards. Using the following cycling protocol (50° C., 30 min; 95° C., 5 min; 40 cycles of 95° C., 15 sec, 60° C., 1 min), HCV RNA expression was quantitated as described in the Perkin Elmer manual using the ABI Prism 7700 Sequence Detector.

[3] = NS3/4A BMS strain; read-out: IC50 range

SMILES | pIC50 [1, 3] | also measured
C=CC1CC1(NC(=O)[C@@H]1C[C@@H](Oc2cncc(Br)c2)CN1C(=O)[C@@H](NC(=O)OC(C)(C)C)C(C)(C)C)C(=O)NS(=O)(=O)C1CC1 (stereo partly shown) [Compound 423] | 6.00 to 7.00 | –
C=CC1C[C@]1(NC(=O)[C@@H]1C[C@@H](Oc2nc(-c3cnccn3)c(OC)c3ccccc23)CN1C(=O)[C@@H](NC(=O)OC(C)(C)C)C(C)(C)C)C(=O)NS(=O)(=O)C1CC1 (stereo partly drawn) [Compound 231, BOCNH-P3(L-t-BuGly)-P2[(4R)-(3-pyrazine-2-yl-4-methoxy -isoquinolin-1-oxo)-S-proline]-P1(1R,2S VinylAcca)-CONHSO2Cyclopropane] | 5.00 to 6.00 | –
C=C[C@H]1C[C@@]1(NC(=O)[C@@H]1C[C@@H](Oc2cccc3ccccc23)CN1C(=O)[C@@H](NC(=O)OC(C)(C)C)C(C)(C)C)C(=O)NS(C)(=O)=O [Compound 471] | 5.00 to 6.00 | –
C=C[C@@H]1CC1(NC(=O)[C@@H]1CC(Oc2nccc3cc(OC)ccc23)CN1C(=O)[C@@H](NC(=O)NC(C)(C)C)C(C)(C)C)C(=O)NS(=O)(=O)C1CC1 (stereo partly shown) [Compound 74] | – | pEC50 [2]: > 7.00
C=CC1CC1(NC(=O)[C@@H]1C[C@@H](Oc2ccnc(N3CCOCC3)n2)CN1C(=O)[C@@H](NC(=O)OC)C(C)(C)C)C(=O)NS(=O)(=O)C1CC1 (stereo partly shown) [Compound 343] | 5.00 to 6.00 | –
C=CC1C[C@]1(NC(=O)[C@@H]1C[C@@H](COc2ccnc(-c3ccoc3)c2)CN1C(=O)[C@@H](NC(=O)OC)C(C)(C)C)C(=O)NS(=O)(=O)C1CC1 (stereo partly shown) [Compound 351] | 5.00 to 6.00 | –
C=C[C@@H]1C[C@]1(NC(=O)C1C[C@@H](Oc2nc(C(F)(F)F)nc3cc(OC)c(OC)cc23)CN1C(=O)[C@@H](N)C(C)(C)C)C(=O)NS(=O)(=O)C1CC1 (stereo partly shown) [Compound 52] | 5.00 to 6.00 | –
C=C[C@@H]1C[C@]1(NC(=O)[C@@H]1C[C@@H](Oc2ccnc3cc(OC)ccc23)CN1C(=O)[C@@H](NC(=O)OC(C)(C)C)C(C)(C)C)C(=O)NS(=O)(=O)C1CC1 [Compound 376] | – | pEC50 [2]: > 7.00
C=CC1CC1(NC(=O)[C@@H]1C[C@@H](Oc2ccnc(N3Cc4ccccc4C3)n2)CN1C(=O)[C@@H](NC(=O)OC)C(C)(C)C)C(=O)NS(=O)(=O)C1CC1 (stereo partly shown) [Compound 342] | 5.00 to 6.00 | –
C=CC1C[C@]1(NC(=O)[C@@H]1C[C@@H](COc2ccnc(Br)c2)CN1C(=O)[C@@H](NC(=O)OC)C(C)(C)C)C(=O)NS(=O)(=O)C1CC1 (stereo partly shown) [Compound 348] | 4.00 to 5.00 | –
C=C[C@@H]1C[C@]1(NC(=O)C1C[C@@H](Oc2nc(C3CC3)nc3cc(OC)c(OC)cc23)CN1C(=O)[C@@H](N)C(C)(C)C)C(=O)NS(=O)(=O)C1CC1 (stereo partly shown) [Compound 49] | 5.00 to 6.00 | –
C=CC1CC1(NC(=O)[C@@H]1C[C@@H](Oc2ccnc(N3CCc4ccccc4C3)n2)CN1C(=O)[C@@H](NC(=O)OC)C(C)(C)C)C(=O)NS(=O)(=O)C1CC1 (stereo partly shown) [Compound 341] | 5.00 to 6.00 | –
C=CC1C[C@]1(NC(=O)[C@@H]1C[C@@H](Oc2nc(Cl)c(OC)c3ccccc23)CN1C(=O)[C@@H](NC(=O)OC(C)(C)C)C(C)(C)C)C(=O)NS(=O)(=O)C1CC1 (stereo partly drawn) [Compound 245, BOCNH-P3(L-t-BuGly)-P2[(4R)-(3-chloro-4-methoxyisoquinoline-1-oxo)-S-proline]-P1(1R,2S VinylAcca)-CONHSO2Cyclopropane] | 6.00 to 7.00 | –
C=CC1C[C@]1(NC(=O)[C@@H]1C[C@@H](COc2cccc(Br)n2)CN1C(=O)[C@@H](NC(=O)OC)C(C)(C)C)C(=O)NS(=O)(=O)C1CC1 (stereo partly shown) [Compound 352] | 4.00 to 5.00 | –
C=CC1C[C@]1(NC(=O)[C@@H]1C[C@@H](COc2cccc(-c3ccccc3)n2)CN1C(=O)[C@@H](NC(=O)OC)C(C)(C)C)C(=O)NS(=O)(=O)C1CC1 (stereo partly shown) [Compound 354] | 5.00 to 6.00 | –
C=CC1CC1(NC(=O)[C@@H]1C[C@@H](Sc2ccc3ccccc3c2)CN1C(=O)[C@@H](NC(=O)OC(C)(C)C)C(C)(C)C)C(=O)NS(C)(=O)=O (stereo partly shown) [Compound 452] | 5.00 to 6.00 | –
C=CC1C[C@]1(NC(=O)[C@@H]1C[C@@H](Oc2nc(-c3cnc(N(C)C)s3)cc3cc(OC)ccc23)CN1C(=O)[C@@H](NC(=O)OC(C)(C)C)C(C)(C)C)C(=O)NS(=O)(=O)C1CC1 (stereo partly shown) [Compound 331] | > 7.00 | –
C=CC1C[C@]1(NC(=O)[C@@H]1C[C@@H](COc2cccc(-c3ccsc3)n2)CN1C(=O)[C@@H](NC(=O)OC)C(C)(C)C)C(=O)NS(=O)(=O)C1CC1 (stereo partly shown) [Compound 353] | 4.00 to 5.00 | –
C=C[C@@H]1C[C@]1(NC(=O)[C@@H]1C[C@@H](Oc2cccc3ccccc23)CN1C(=O)[C@@H](NC(=O)OC(C)(C)C)C(C)(C)C)C(=O)NS(C)(=O)=O [Compound 470] | 6.00 to 7.00 | –
C=CC1C[C@]1(NC(=O)[C@@H]1C[C@@H](COc2ccnc3ccccc23)CN1C(=O)[C@@H](NC(=O)OC)C(C)(C)C)C(=O)NS(=O)(=O)C1CC1 (stereo partly shown) [Compound 344] | 6.00 to 7.00 | –
C=CC1C[C@]1(NC(=O)[C@@H]1C[C@@H](COc2ccnc(-c3ccsc3)c2)CN1C(=O)[C@@H](NC(=O)OC)C(C)(C)C)C(=O)NS(=O)(=O)C1CC1 (stereo partly shown) [Compound 349] | 5.00 to 6.00 | –
C=C[C@@H]1C[C@]1(NC(=O)[C@@H]1C[C@@H](Oc2nccc3c(O)cccc23)CN1C(=O)[C@@H](NC(=O)OC(C)(C)C)C(C)(C)C)C(=O)NS(=O)(=O)C1CC1 [Compound 256] | 4.00 to 5.00 | –
C=CC1C[C@]1(NC(=O)[C@@H]1C[C@@H](COc2cncc(Br)c2)CN1C(=O)[C@@H](NC(=O)OC)C(C)(C)C)C(=O)NS(=O)(=O)C1CC1 (stereo partly shown) [Compound 346] | 5.00 to 6.00 | –
C=CC1CC1(NC(=O)[C@@H]1C[C@@H](Sc2cccc3ccccc23)CN1C(=O)[C@@H](NC(=O)OC(C)(C)C)C(C)(C)C)C(=O)NS(C)(=O)=O (stereo partly shown) [Compound 451] | 5.00 to 6.00 | –
C=CC1CC1(NC(=O)C1CC(Oc2nccc3cc(OC)ccc23)CN1C(=O)C(NC)C(C)CC)C(=O)NS(=O)(=O)C1CC1 (stereo not shown) [Compound 99] | – | pIC50 ([1]; read-out: IC50 range; NS3/4A BMS strain): 5.00 to 6.00
